Results on 15 molecules are retold here after patent US9187474B2, “Raf inhibitor compounds” (Deciphera Pharmaceuticals, LLC, priority 2012, dated 2015).

Structures can show the parent of a compound that is named as a salt. Where two headings read alike, the source gives them in different places.

Series [1] has as its system phospho-ERK in A375 (B-Raf V600E) xenograft. Put plainly: A375 mouse xenograft pharmacodynamic assay (tumor pERK by ELISA). The class given is in vivo, mice. To be noted: 2 h post dose, vs vehicle, read-out: Measured pERK inhibition 2 h post dose; for inhibition in vivo at 20 mg/kg: A-375, 20 mg/kg oral. The method, then:
To evaluate the in vivo pharmacodynamic (PD) effects of compounds of Formula I, an A375 (B-Raf V600E) xenograft model is employed. Briefly, 10×10^6 A375 tumor cells (ATCC) are prepared in a 1:1 matrigel mix (0.2 mL total volume) and implanted by subcutaneous injection in hind leg of nude female mice. A total of 4 mice each for each dosing group are employed. Treatment is initiated with oral administration (gavage) of test compound or vehicle (20% captisol, 25 mM phosphate, pH2.0) in 0.2 mL volume when average tumor size reaches approximately 300 mg. After a fixed time interval, the tumors are harvested and the phospho-ERK levels are measured by ELISA (Enzyme-linked immunosorbent assay). Treated groups are compared to the vehicle control group to calculate % inhibition.

Series [2] deals with A375res cells.
Source text: (§2) A vemurafenib-resistant cell line is generated by chronic treatment of the human melanoma cell line A375 (ATCC) harboring the B-Raf V600E mutation with increasing concentrations PLX4720.
Series [3] deals with phospho-ERK in HCT-116 cells. Put plainly: HCT-116 cell pERK assay (AlphaScreen SureFire). Type of series: cell-based. Particulars: for IC50: Homo sapiens, HCT-116 cells, B-Raf wild type, K-Ras mutation, 4 hours, read-out: IC50 reduction of phospho-ERK signal. The method, then:
Examples of Formula I are tested against HCT-116 cells harboring wild type B-Raf and K-Ras mutation. The phospho-ERK activities are evaluated as described below.
HCT-116 cells (catalog #CCL-247) are obtained from the American Type Culture Collection (ATCC, Manassas, Va.). Briefly, cells are grown in McCoy's 5A supplemented with 10% characterized fetal bovine serum (Invitrogen, Carlsbad, Calif.), and 1% Penicillin/Streptomycin/L-Glutamine at 37 degrees Celsius, 5% CO2, and 95% humidity. Cells are allowed to expand until reaching 75-90% confluency at which point they are subcultured or harvested for assay use. HCT-116 cells suspended in complete media are added to 384-well tissue culture treated plates (3×10^5 cells/mL; 7,500 cells per well). The cells are incubated overnight at 37 degrees Celsius, 5% CO2, and 95% humidity. Next, test compound or DMSO diluted in complete media is added to the wells (0.25% final DMSO concentration). The plates are then incubated for 4 hours at 37 degrees Celsius, 5% CO2, and 95% humidity. Following compound incubation, the cells are lysed at 4° C. for 20 minutes with shaking Cell lysates are centrifuged and the supernatant is transferred to a new plate. An aliquot of each lysate is transferred to a white 384-well assay plate. Using the AlphaScreen SureFire pERK kit (Perkin-Elmer, Waltham, Mass.), an acceptor bead mixture is added to each well and incubated for 2 h at room temperature in the dark. A donor bead mixture is then added to each well and incubated for 2 h at room temperature in the dark. Plates are read using a Synergy2 plate reader (Biotek, Winooski, Vt.) in Plate Mode with Timing Control. Read: (F)1: excitation: 680/30 nm, emission: Plug. 2: Excitation: Plug, emission: 570/100 nm. Top mirror 635 nm. Data is analyzed using Prism software (Graphpad, San Diego, Calif.) to calculate IC50 values and Excel software (Microsoft, Redmond, Wash.) to calculate stimulation compared to control.

Series [4] has as its system A375res cells. Put plainly: Proliferation assay in vemurafenib-resistant A375res melanoma cells. To be noted: for IC50: Homo sapiens, 72 h.
Source text: as §2
Another series has as its system A375 xenograft tumor. Put plainly: A375 mouse xenograft efficacy model. Type of series: in vivo, mice. Particulars: oral, twice a day at 15 or 30 mg/kg, 21 days. The method, then: (§1) To further evaluate in vivo activity of compounds of Formula I, an A375 xenograft tumor model is utilized. Briefly, 10×10^6 cells in a 1:1 matrigel mix (0.2 mL total volume) are implanted by subcutaneous injection in the hind leg of nude female mice. A total of 8-10 mice in each group are used. Treatment is initiated with oral administration (gavage) of a test compound or vehicle (20% captisol, 25 mM phosphate, pH2.0) in 0.2 mL volume when tumor size reaches approximately 300-500 mg. Test compound is orally dosed twice or thrice a day for 21 days. Tumor growth and body weight are monitored over time to evaluate efficacy and signs of toxicity. Bidimensional measurements of tumors are performed twice a week and tumor volumes are calculated based on the following formula: (Tumor Volume)=[(L)×(W^2)×(π/6)] where L is mid-axis length and W is mid-axis width. Tumor volume data are transformed to a log scale to equalize variance across time and treatment groups. The log volume data are analyzed with a two-way repeated measures analysis of variance by time and treatment using the MIXED procedures in SAS software (version 8.2). The correlation model for the repeated measures is spatial power. Treated groups are compared to the control group at each time point. The MIXED procedure is also used separately for each treatment group to calculate adjusted means and standard errors at each time point. Both analyses account for the autocorrelation within each animal and the loss of data that occurs when animals with large tumors are removed from the study early. The adjusted means and standard errors are plotted for each treatment group versus time.

Series [5] can be described thus: Body weight in A375 mouse xenograft efficacy model. The class given is in vivo, mice. To be noted: oral, twice a day at 15 or 30 mg/kg, 21 days. The method, then: as §1
For another series, the system named is A375 cells. Put plainly: A375 cell proliferation assay (72 hour). To be noted: Homo sapiens, A-375, parental A375 cells. Type of series: cell-based.

Procedure for A375 cells: A375 cells (catalog #CRL-1619) are obtained from the American Type Culture Collection (ATCC, Manassas, Va.). Briefly, cells are grown in DMEM High Glucose supplemented with 10% characterized fetal bovine serum (Invitrogen, Carlsbad, Calif.) and 1% Penicillin/Streptomycin/L-Glutamine at 37 degrees Celsius, 5% CO2, and 95% humidity. Cells are allowed to expand until reaching 70-95% confluency at which point they are subcultured or harvested for assay use. A serial dilution of test compound is dispensed into a 384-well black clear bottom plate in triplicate. Six hundred twenty-five cells are added per well in 50 μL complete growth medium in the 384-well plate. Plates are incubated for 67 hours at 37 degrees Celsius, 5% CO2, and 95% humidity. […] Plates are read on a Synergy2 reader (Biotek, Winooski, Vt.) using an excitation of 540 nm and an emission of 600 nm. Data is analyzed using Prism software (Graphpad, San Diego, Calif.) to calculate IC50 values.

On to `CNc1cc2nc(C)c(-c3cc(NC(=O)NCCC(C)(C)C#N)c(F)cc3C)cc2cn1` [Example 9, 1-(3-cyano-3-methylbutyl)-3-(2-fluoro-4-methyl-5-(2-methyl-7-(methylamino)-1,6-naphthyridin-3-yl)phenyl)urea], for which, in series [1], the inhibition in vivo at 20 mg/kg was found to be 78%. Also, in the series with A375res cells [2], the “IC50 shift A375 to A375res” value was 0.5-4.9 fold. Also, the IC50 is 2 to 96 nM in series [3] and 9 to 504 nM in the series on A375res cells [4] (read-out: absolute IC50 values).

On to `CNc1cc2nc(C)c(-c3cc(NC(=O)NC4CCC(F)(F)CC4)c(F)cc3C)cc2cn1` [Example 12, 1-(4,4-difluorocyclohexyl)-3-(2-fluoro-4-methyl-5-(2-methyl-7-(methylamino)-1,6-naphthyridin-3-yl)phenyl)urea hydrochloride], for which the inhibition in vivo at 20 mg/kg in series [1] stood at 58%. The “IC50 shift A375 to A375res” value in the series with A375res cells [2] is recorded as 0.5-4.9 fold. Also, the IC50 in series [3] fell in the range of 2 to 96 nM; in the series on A375res cells [4] (read-out: absolute IC50 values), 9 to 504 nM.

In the case of `CNc1cc2nc(C)c(-c3cc(NC(=O)NCCC(C)(C)C)c(F)cc3C)cc2cn1` [Example 17, 1-(3,3-dimethylbutyl)-3-(2-fluoro-4-methyl-5-(2-methyl-7-(methylamino)-1,6-naphthyridin-3-yl)phenyl)urea], the inhibition in vivo at 20 mg/kg in series [1] came out at 89%. The “IC50 shift A375 to A375res” value in the series on A375res cells [2] was 0.5-4.9 fold. In addition, the IC50 in the series on A375res cells [4] (read-out: absolute IC50 values) was in the range of 9 to 504 nM.

As for `CNc1cc2nc(C)c(-c3cc(NC(=O)NCCC(C)(C)OC)c(F)cc3F)cc2cn1` [Example 24, 1-(2,4-difluoro-5-(2-methyl-7 (methylamino)-1,6-naphthyridin-3-yl)phenyl)-3-(3-methoxy-3-methylbutyl)urea hydrochloride], the inhibition in vivo at 20 mg/kg in series [1] was determined as 45%. The IC50 in series [3] lay in the range of 2 to 96 nM; in the series with A375res cells [4] (read-out: absolute IC50 values), 9 to 504 nM.

`Cc1nc2cc(NCCO)ncc2cc1-c1cc(NC(=O)NCCC(C)(C)C)c(F)cc1F` [Example 47, 1-(2,4-difluoro-5-(7-(2-hydroxyethylamino)-2-methyl-1,6-naphthyridin-3-yl)phenyl)-3-(3,3-dimethylbutyl)urea]: the inhibition in vivo at 20 mg/kg in series [1] stood at 50%. Also, the “IC50 shift A375 to A375res” value in the series on A375res cells [2] is listed as 0.5-4.9 fold. The IC50 in series [3] lay within 2 to 96 nM; in the series with A375res cells [4] (read-out: absolute IC50 values) it was 9 to 504 nM.

Turning to `CNc1cc2nc(C)c(-c3cc(NC(=O)NC[C@@H](O)C(C)(C)C)c(F)cc3C)cc2cn1` [Example 56, (S)-1-(2-fluoro-4-methyl-5-(2-methyl-7-(methylamino)-1,6-naphthyridin-3-yl)phenyl)-3-(2-hydroxy-3,3-dimethylbutyl)urea], in series [1] (A-375, 6 mg/kg oral), the inhibition in vivo at 6 mg/kg was found to be 75%. In addition, in series [3], the IC50 was in the range of 2 to 96 nM.

On to `CNc1cc2nc(C)c(-c3cc(NC(=O)NC[C@H](O)C(C)(C)C)c(F)cc3C)cc2cn1` [Example 57, (R)-1-(2-fluoro-4-methyl-5-(2-methyl-7-(methylamino)-1,6-naphthyridin-3-yl)phenyl)-3-(2-hydroxy-3,3-dimethylbutyl)urea], for which the inhibition in vivo at 20 mg/kg in series [1] came out at 96%. The “IC50 shift A375 to A375res” value with A375res cells [2] was 0.5-4.9 fold. Moreover, the IC50 in series [3] was 2 to 96 nM; with A375res cells [4] (read-out: absolute IC50 values) it was 9 to 504 nM.

On to `Cc1cc(F)c(NC(=O)NCCC(C)(C)C)cc1-c1cc2cnc(NCCO)cc2nc1C` [Example 64, 1-(3,3-dimethylbutyl)-3-(2-fluoro-5-(7-((2-hydroxyethyl)amino)-2-methyl-1,6-naphthyridin-3-yl)-4-methylphenyl)urea], for which the inhibition in vivo at 20 mg/kg in series [1] worked out at 79%. Besides, the IC50 in series [3] fell in the range of 2 to 96 nM.

On to `CNc1cc2nc(C)c(-c3cc(NC(=O)N[C@H]4C[C@](C)(F)C4)c(F)cc3C)cc2cn1` [Example 77, 1-(3-fluoro-cis(3-methylcyclobutyl))-3-(2-fluoro-4-methyl-5-(2-methyl-7-(methylamino)-1,6-naphthyridin-3-yl)phenyl)urea], for which the inhibition in vivo at 20 mg/kg in series [1] is 96%. Besides, in the series on A375res cells [2], the “IC50 shift A375 to A375res” value was 0.5-4.9 fold. The IC50 fell in the range of 2 to 96 nM in series [3] and 9 to 504 nM in the series on A375res cells [4] (read-out: absolute IC50 values).

Turning to `Cc1cc(F)c(NC(=O)NCCC(C)(C)F)cc1-c1cc2cnc(N)cc2nc1C` [Example 79, 1-(5-(7-amino-2-methyl-1,6-naphthyridin-3-yl)-2-fluoro-4-methylphenyl)-3-(3-fluoro-3-methylbutyl)urea], the inhibition in vivo at 20 mg/kg in series [1] was found to be 87%. Also, in the series with A375res cells [2], the “IC50 shift A375 to A375res” value was 0.5-4.9 fold. In addition, in the series with A375 xenograft tumor, the tumor growth entry was “tumor growth inhibition”. The IC50 in series [3] was 2 to 96 nM; with A375res cells [4] (read-out: absolute IC50 values) it was 9 to 504 nM. Moreover, the “animal body weight loss” value in series [5] is listed as “minimal animal body weight loss”.

For the molecule `CNc1cc2nc(C)c(-c3cc(NC(=O)NCCC(C)(C)C(F)(F)F)c(F)cc3C)cc2cn1` [Example 89, 1-(2-fluoro-4-methyl-5-(2-methyl-7-(methylamino)-1,6-naphthyridin-3-yl)phenyl)-3-(4,4,4-trifluoro-3,3-dimethylbutyl)urea hydrochloride], the inhibition in vivo at 20 mg/kg in series [1] amounted to 84%. Further, the “IC50 shift A375 to A375res” value with A375res cells [2] is on record as 0.5-4.9 fold. Also, the IC50 in series [3] was in the range of 2 to 96 nM; with A375res cells [4] (read-out: absolute IC50 values), 9 to 504 nM.

Take `CNc1cc2nc(C)c(-c3cc(NC(=O)NCCC(C)(C)OC)c(F)cc3C)cc2cn1` [Example 92, 1-(2-fluoro-4-methyl-5-(2-methyl-7-(methylamino)-1,6-naphthyridin-3-yl)phenyl)-3-(3-methoxy-3-methylbutyl)urea hydrochloride]: the inhibition in vivo at 20 mg/kg in series [1] is 77%. Also, the “IC50 shift A375 to A375res” value in the series with A375res cells [2] is on record as 0.5-4.9 fold. Besides, the IC50 lay within 2 to 96 nM in series [3] and 9 to 504 nM in the series on A375res cells [4] (read-out: absolute IC50 values).

Regarding `CC(=O)Nc1cc2nc(C)c(-c3cc(NC(=O)NCCC(C)(C)C)c(F)cc3F)cc2cn1` [Example 105, N-(3-(5-(3-(3,3-dimethylbutyl)ureido)-2,4-difluorophenyl)-2-methyl-1,6-naphthyridin-7-yl)acetamide], the inhibition in vivo at 20 mg/kg in series [1] was 87%.

Regarding `CCCS(=O)(=O)Nc1ccc(F)c(C(=O)c2c[nH]c3ncc(Cl)cc23)c1F` [PLX4720, N-[3-(5-chloro-1H-pyrrolo[2,3-b]pyridine-3-carbonyl)-2,4-difluorophenyl]propane-1-sulfonamide, reference compound], the IC50 with A375 cells is 369 nM; in the series on A375res cells [4] (read-out: IC50 proliferation) it was greater than 10000 nM. In addition, the “IC50 shift A375 to A375res” value in the series on A375res cells [4] (72 hour proliferation assay) is listed as “more than 27 fold”.

`CCCS(=O)(=O)Nc1ccc(F)c(C(=O)c2c[nH]c3ncc(-c4ccc(Cl)cc4)cc23)c1F` [vemurafenib, reference compound]: the “IC50 shift A375 to A375res” value in the series on A375res cells [2] was “more than 57 fold”. The results for the IC50 in the series with A375 cells and in the series on A375res cells [4] (read-out: IC50 proliferation) were 175 nM and greater than 10000 nM, respectively. For the same molecule, in series [3] (at concentrations up to about 3 uM), the “effect on pERK signal” value was “stimulates the pERK signal”.
